In PubChem BioAssay (NCI):
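All cell lines were grown in 96-well plates and treated with compound for 48 hours. GI50 marks 50% less growth. TGI marks complete inhibition of growth.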

Columns and labels:
Experiment in all cases: inhibition of tumour cell growth, NCI panel, 48 h
NCI/ADR-RES ovarian = test system: NCI/ADR-RES ovarian
NCI-H522 lung = test system: NCI-H522 lung
CAKI-1 renal = test system: CAKI-1 renal
IGROV1 ovarian = test system: IGROV1 ovarian
MCF7 breast = test system: MCF7 breast
SNB-19 CNS = test system: SNB-19 CNS
HT29 colon = test system: HT29 colon
HCT-116 colon = test system: HCT-116 colon
A498 renal = test system: A498 renal
RPMI-8226 leukemia = test system: RPMI-8226 leukemia
MDA-N = test system: MDA-N
BT-549 breast = test system: BT-549 breast
MOLT-4 leukemia = test system: MOLT-4 leukemia
HS 578T breast = test system: HS 578T breast
HOP-62 NSCLC = test system: HOP-62 NSCLC
HCC-2998 colon = test system: HCC-2998 colon
CCRF-CEM leukemia = test system: CCRF-CEM leukemia
UO-31 renal = test system: UO-31 renal
786-0 renal = test system: 786-0 renal
COLO 205 colon = test system: COLO 205 colon
OVCAR-8 ovarian = test system: OVCAR-8 ovarian
SK-MEL-28 melanoma = test system: SK-MEL-28 melanoma
NCI-H460 lung = test system: NCI-H460 lung
OVCAR-5 ovarian = test system: OVCAR-5 ovarian
DU-145 prostate = test system: DU-145 prostate
SK-MEL-2 melanoma = test system: SK-MEL-2 melanoma
HL-60(TB) leukemia = test system: HL-60(TB) leukemia
SNB-75 CNS = test system: SNB-75 CNS
HCT-15 colon = test system: HCT-15 colon
K-562 leukemia = test system: K-562 leukemia
SR leukemia = test system: SR leukemia
SF-268 CNS = test system: SF-268 CNS
NCI-H23 lung = test system: NCI-H23 lung
RXF 393 renal = test system: RXF 393 renal
KM12 colon = test system: KM12 colon
SW-620 colon = test system: SW-620 colon
PC-3 prostate = test system: PC-3 prostate
SF-539 CNS = test system: SF-539 CNS
U251 CNS = test system: U251 CNS
M14 melanoma = test system: M14 melanoma
OVCAR-3 ovarian = test system: OVCAR-3 ovarian
SK-OV-3 ovarian = test system: SK-OV-3 ovarian
ACHN renal = test system: ACHN renal
MDA-MB-231 breast = test system: MDA-MB-231 breast
T-47D breast = test system: T-47D breast
SF-295 CNS = test system: SF-295 CNS
UACC-257 melanoma = test system: UACC-257 melanoma
MALME-3M melanoma = test system: MALME-3M melanoma
A549 NSCLC = test system: A549 NSCLC
LOX IMVI melanoma = test system: LOX IMVI melanoma
SK-MEL-5 melanoma = test system: SK-MEL-5 melanoma
NCI-H226 lung = test system: NCI-H226 lung
HOP-92 NSCLC = test system: HOP-92 NSCLC
OVCAR-4 ovarian = test system: OVCAR-4 ovarian
TK-10 renal = test system: TK-10 renal
MDA-MB-435 = test system: MDA-MB-435
EKVX NSCLC = test system: EKVX NSCLC
UACC-62 melanoma = test system: UACC-62 melanoma
SN12C renal = test system: SN12C renal

## O=CN1CCN(C(=O)c2ccco2)C1=S
NCI/ADR-RES ovarian
  TGI: 75.3 µM
NCI-H522 lung
  TGI: 17.4 µM
CAKI-1 renal
  TGI: 18.5 µM
IGROV1 ovarian
  TGI: 25.3 µM
MCF7 breast
  TGI: 10.6 µM
SNB-19 CNS
  TGI: > 70.6 µM
HT29 colon
  TGI: 26.2 µM
HCT-116 colon
  TGI: 24.5 µM
A498 renal
  TGI: 39.7 µM
RPMI-8226 leukemia
  TGI: 8.96 µM
MDA-N
  TGI: 24.7 µM
BT-549 breast
  TGI: 16.8 µM
MOLT-4 leukemia
  TGI: 35 µM
HS 578T breast
  TGI: > 100 µM
HOP-62 NSCLC
  TGI: 36.2 µM
HCC-2998 colon
  GI50: 13.4 µM
  TGI: 27.2 µM
CCRF-CEM leukemia
  TGI: > 37.1 µM
UO-31 renal
  TGI: 13.8 µM
786-0 renal
  TGI: 12.6 µM
COLO 205 colon
  TGI: 24.4 µM
OVCAR-8 ovarian
  TGI: 59 µM
SK-MEL-28 melanoma
  TGI: > 57.6 µM
NCI-H460 lung
  TGI: 42.1 µM
OVCAR-5 ovarian
  TGI: 37.7 µM
DU-145 prostate
  TGI: 11.6 µM
SK-MEL-2 melanoma
  TGI: 40.6 µM
HL-60(TB) leukemia
  TGI: 8.94 µM
SNB-75 CNS
  TGI: 34.8 µM
HCT-15 colon
  TGI: 25.7 µM
K-562 leukemia
  TGI: 29.5 µM
SR leukemia
  TGI: 9.25 µM
SF-268 CNS
  TGI: 28.8 µM
NCI-H23 lung
  TGI: 40.4 µM
RXF 393 renal
  TGI: 20.1 µM
KM12 colon
  TGI: 20.1 µM
SW-620 colon
  TGI: > 46.5 µM
PC-3 prostate
  TGI: 23 µM
SF-539 CNS
  TGI: 22.8 µM
U251 CNS
  TGI: 32.5 µM
M14 melanoma
  TGI: 24.1 µM
OVCAR-3 ovarian
  TGI: 15.4 µM
SK-OV-3 ovarian
  TGI: 70.8 µM
ACHN renal
  TGI: 24 µM
MDA-MB-231 breast
  TGI: 33.9 µM
T-47D breast
  TGI: 19.3 µM
SF-295 CNS
  TGI: 51.1 µM
UACC-257 melanoma
  TGI: 33 µM
MALME-3M melanoma
  TGI: 29.9 µM
A549 NSCLC
  TGI: 26.9 µM
LOX IMVI melanoma
  TGI: 14.8 µM
SK-MEL-5 melanoma
  TGI: 29.1 µM
NCI-H226 lung
  TGI: 54.8 µM
HOP-92 NSCLC
  TGI: 18.7 µM
OVCAR-4 ovarian
  TGI: 46.6 µM
TK-10 renal
  TGI: 31 µM
MDA-MB-435
  TGI: 19.7 µM
EKVX NSCLC
  TGI: 41.3 µM
UACC-62 melanoma
  TGI: 20.7 µM
SN12C renal
  TGI: 15.8 µM

## C[n+]1c(-c2ccc(NC(=O)c3ccc(C(=O)Nc4ccc(-c5cn6ccccc6[n+]5C)cc4)cc3)cc2)cn2ccccc21
NCI/ADR-RES ovarian
  TGI: > 100 µM
NCI-H522 lung
  TGI: > 100 µM
CAKI-1 renal
  TGI: > 100 µM
IGROV1 ovarian
  TGI: > 100 µM
MCF7 breast
  TGI: > 100 µM
SNB-19 CNS
  TGI: > 100 µM
HT29 colon
  TGI: > 100 µM
HCT-116 colon
  TGI: > 100 µM
A498 renal
  TGI: > 94.9 µM
RPMI-8226 leukemia
  TGI: > 100 µM
MDA-N
  TGI: > 100 µM
BT-549 breast
  TGI: > 100 µM
MOLT-4 leukemia
  TGI: > 100 µM
HS 578T breast
  TGI: > 100 µM
HOP-62 NSCLC
  TGI: > 100 µM
HCC-2998 colon
  TGI: > 100 µM
CCRF-CEM leukemia
  TGI: > 100 µM
UO-31 renal
  TGI: > 100 µM
786-0 renal
  TGI: > 100 µM
COLO 205 colon
  TGI: > 100 µM
OVCAR-8 ovarian
  TGI: > 100 µM
SK-MEL-28 melanoma
  TGI: > 100 µM
NCI-H460 lung
  TGI: > 100 µM
OVCAR-5 ovarian
  TGI: > 100 µM
DU-145 prostate
  TGI: > 100 µM
SK-MEL-2 melanoma
  TGI: > 100 µM
HL-60(TB) leukemia
  TGI: > 100 µM
SNB-75 CNS
  TGI: > 100 µM
HCT-15 colon
  TGI: > 100 µM
K-562 leukemia
  TGI: > 100 µM
SR leukemia
  TGI: > 100 µM
SF-268 CNS
  TGI: > 100 µM
NCI-H23 lung
  TGI: > 100 µM
RXF 393 renal
  TGI: > 100 µM
KM12 colon
  TGI: > 100 µM
SW-620 colon
  TGI: > 100 µM
PC-3 prostate
  TGI: > 100 µM
SF-539 CNS
  TGI: > 100 µM
U251 CNS
  TGI: > 100 µM
M14 melanoma
  TGI: > 100 µM
OVCAR-3 ovarian
  TGI: > 100 µM
SK-OV-3 ovarian
  TGI: > 100 µM
ACHN renal
  TGI: > 100 µM
MDA-MB-231 breast
  TGI: > 100 µM
T-47D breast
  TGI: > 100 µM
SF-295 CNS
  TGI: > 100 µM
UACC-257 melanoma
  TGI: > 100 µM
MALME-3M melanoma
  TGI: > 100 µM
A549 NSCLC
  TGI: > 100 µM
LOX IMVI melanoma
  TGI: > 100 µM
SK-MEL-5 melanoma
  TGI: > 100 µM
NCI-H226 lung
  TGI: > 100 µM
HOP-92 NSCLC
  TGI: > 100 µM
OVCAR-4 ovarian
  TGI: > 100 µM
TK-10 renal
  TGI: > 100 µM
MDA-MB-435
  TGI: > 100 µM
EKVX NSCLC
  TGI: > 100 µM
UACC-62 melanoma
  TGI: > 100 µM
SN12C renal
  TGI: > 100 µM

## Cc1cc(S(=O)(=O)Nc2n[nH]c(Nc3ccccc3)n2)c(SCC(=O)O)cc1Cl
NCI/ADR-RES ovarian
  TGI: > 100 µM
NCI-H522 lung
  TGI: > 100 µM
CAKI-1 renal
  TGI: > 100 µM
IGROV1 ovarian
  TGI: > 100 µM
MCF7 breast
  TGI: > 100 µM
SNB-19 CNS
  TGI: > 100 µM
HT29 colon
  TGI: > 100 µM
HCT-116 colon
  TGI: > 100 µM
A498 renal
  TGI: > 100 µM
RPMI-8226 leukemia
  TGI: > 100 µM
MDA-N
  TGI: > 100 µM
BT-549 breast
  TGI: > 100 µM
MOLT-4 leukemia
  TGI: > 100 µM
HS 578T breast
  TGI: > 100 µM
HOP-62 NSCLC
  TGI: > 100 µM
HCC-2998 colon
  TGI: > 100 µM
CCRF-CEM leukemia
  TGI: > 100 µM
UO-31 renal
  TGI: > 100 µM
786-0 renal
  TGI: > 100 µM
COLO 205 colon
  TGI: > 100 µM
OVCAR-8 ovarian
  TGI: > 100 µM
SK-MEL-28 melanoma
  TGI: > 100 µM
NCI-H460 lung
  TGI: > 100 µM
OVCAR-5 ovarian
  TGI: > 100 µM
DU-145 prostate
  TGI: > 100 µM
SK-MEL-2 melanoma
  TGI: > 100 µM
HL-60(TB) leukemia
  TGI: > 100 µM
SNB-75 CNS
  TGI: > 100 µM
HCT-15 colon
  TGI: > 100 µM
K-562 leukemia
  TGI: > 100 µM
SR leukemia
  TGI: > 100 µM
SF-268 CNS
  TGI: > 100 µM
NCI-H23 lung
  TGI: > 100 µM
RXF 393 renal
  TGI: > 100 µM
KM12 colon
  TGI: > 100 µM
SW-620 colon
  TGI: > 100 µM
PC-3 prostate
  TGI: > 100 µM
SF-539 CNS
  TGI: > 100 µM
U251 CNS
  TGI: > 100 µM
M14 melanoma
  TGI: > 100 µM
OVCAR-3 ovarian
  TGI: > 100 µM
SK-OV-3 ovarian
  TGI: > 100 µM
ACHN renal
  TGI: > 100 µM
MDA-MB-231 breast
  TGI: > 100 µM
T-47D breast
  TGI: > 100 µM
SF-295 CNS
  TGI: > 100 µM
UACC-257 melanoma
  TGI: > 100 µM
MALME-3M melanoma
  TGI: > 100 µM
A549 NSCLC
  TGI: > 100 µM
LOX IMVI melanoma
  TGI: > 100 µM
SK-MEL-5 melanoma
  TGI: > 100 µM
NCI-H226 lung
  TGI: > 100 µM
HOP-92 NSCLC
  TGI: > 100 µM
OVCAR-4 ovarian
  TGI: > 100 µM
TK-10 renal
  TGI: > 100 µM
MDA-MB-435
  TGI: > 100 µM
EKVX NSCLC
  TGI: > 100 µM
UACC-62 melanoma
  TGI: > 100 µM
SN12C renal
  TGI: > 100 µM
